Where “and” joins values, the source holds several entries; their conditions need not be identical. Equal entries are not always repeated.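 These data come from cells grown in 96-well plates and exposed to compound for 48 hours at five concentrations. Abbreviation: GI50, concentration required for 50% inhibition of growth. TGI: concentration producing complete growth inhibition.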
Assays:
Experiment in all cases: growth of human tumour cells (NCI), 48 h
786-0 renal = test system: 786-0 renal
CAKI-1 renal = test system: CAKI-1 renal
EKVX NSCLC = test system: EKVX NSCLC
HOP-62 NSCLC = test system: HOP-62 NSCLC
HS 578T breast = test system: HS 578T breast
M14 melanoma = test system: M14 melanoma
PC-3 prostate = test system: PC-3 prostate
RPMI-8226 leukemia = test system: RPMI-8226 leukemia
SK-MEL-5 melanoma = test system: SK-MEL-5 melanoma
SNB-19 CNS = test system: SNB-19 CNS

Compound | GI50 (786-0 renal) | TGI (786-0 renal) | GI50 (CAKI-1 renal) | TGI (CAKI-1 renal) | TGI (EKVX NSCLC) [µM] | GI50 (HOP-62 NSCLC) | TGI (HOP-62 NSCLC) | GI50 (HS 578T breast) | TGI (HS 578T breast) | GI50 (M14 melanoma) | TGI (M14 melanoma) | GI50 (PC-3 prostate) | TGI (PC-3 prostate) | GI50 (RPMI-8226 leukemia) | TGI (RPMI-8226 leukemia) | GI50 (SK-MEL-5 melanoma) | TGI (SK-MEL-5 melanoma) | GI50 (SNB-19 CNS) | TGI (SNB-19 CNS) | GI50 (EKVX NSCLC) [µM]
COc1cc(C2C3=C(COC3=O)Nc3cc4c(cc32)OCO4)cc2c1OCO2 (centres undefined) | 138 nM | > 100 µM | 156 nM | > 100 µM | > 100 | 0.0762 µM | > 87.2 µM | 41.4 nM | > 100 µM | 30 nM | 0.0878 µM | 62.9 nM | > 100 µM | 68 nM | > 100 µM | 101 nM | 374 nM | 143 nM | > 100 µM | 
CN(C)c1ccc(/C=N/NC(=O)c2cccc3ccccc23)c(Cl)c1 | 5870 nM | > 100 µM | 527 nM | 8.04 µM | > 100 | 4.18 µM | 33.4 µM | 1270 nM | > 100 µM | 763 nM | > 100 µM | 2240 nM | > 100 µM | 2190 nM | > 100 µM | 922 nM | 24100 nM | 15500 nM | > 100 µM | 3.51
Cc1cc2c(=O)[nH]c(N)nc2nc1C |  | > 100 µM |  | > 100 µM | > 100 |  | > 100 µM |  | > 100 µM |  | > 100 µM |  | > 100 µM |  | > 100 µM |  | > 100000 nM |  | > 100 µM | 
O=S(=O)(NCCO)c1cc[c]([Sb](=[O])([OH])[OH])cc1 | > 100000 nM | > 100 µM | > 100000 nM | > 100 µM | > 100 | > 100 µM | > 100 µM | > 100000 nM | > 100 µM | > 100000 nM | > 100 µM | > 100000 nM | > 100 µM | > 100000 nM | > 100 µM | > 100000 nM | > 100000 nM | > 100000 nM | > 100 µM | > 100
CCOC(=O)c1nc2cc(C(F)(F)F)ccc2[n+]([O-])c1C | > 100000 nM | > 100 µM | > 100000 nM | > 100 µM | > 100 | > 100 µM | > 100 µM | > 100000 nM | > 100 µM | > 100000 nM | > 100 µM | > 100000 nM | > 100 µM | > 100000 nM | > 100 µM | > 100000 nM | > 100000 nM | > 100000 nM | > 100 µM | > 100
O=C(c1ccccc1O)c1[nH]c(Cl)c(Cl)c1-n1c(C(=O)c2ccccc2O)cc(Cl)c1Cl | 2110 nM and 1730 nM | 11.2 µM and 7.99 µM | 425 nM and 385 nM | 10.6 µM and 3.1 µM | 10 | 2.14 µM and 3.49 µM | 6.49 µM and 17.2 µM | 849 nM and 623 nM | 10.9 µM and 9.66 µM | 1460 nM and 1440 nM | 5.9 µM and 7.76 µM | 411 nM and 276 nM | 9.21 µM and 2.37 µM | 366 nM and 265 nM | 4.21 µM and 1.57 µM | 314 nM and 220 nM | 1380 nM and 589 nM | 1490 nM and 917 nM | 15.4 µM and 15.6 µM | 0.549

Source: PubChem BioAssay (NCI)
